Counter-ions that a name gives are not always drawn.
Experiment: in vitro
Conditions: human, hek293t cells

| Structure (SMILES) | viability at 48 h, 25 µM [%] |
| --- | --- |
| O=C(CCl)c1ccc(CC(=O)N2CCOCC2)s1 [10-H06, 2-chloro-1-{5-[2-(morpholin-4-yl)-2-oxoethyl]thiophen-2-yl}ethan-1-one] | 71.7 |
| COc1ccc(CCN2C(=O)C=CC2=O)cc1OC [10-H07, 1-[2-(3,4-dimethoxyphenyl)ethyl]-2,5-dihydro-1H-pyrrole-2,5-dione] | 101 |
| CSc1cc(C(=O)CCl)ccc1NC(C)=O [10-H08, N-[4-(2-chloroacetyl)-2-(methylsulfanyl)phenyl]acetamide] | 8.39 |
| Cc1cccc2[nH]cc(C(=O)CCl)c12 [10-H09, 2-chloro-1-(4-methyl-1H-indol-3-yl)ethan-1-one] | 5.75 |
| CC(C)n1ccnc1C(=O)CCl [10-H10, 2-chloro-1-[1-(propan-2-yl)-1H-imidazol-2-yl]ethan-1-one] | 20.4 |
| O=C(Nc1cc(F)ccc1F)N1CCSSCC1 [10-H11, N-(2,5-difluorophenyl)-1,2,5-dithiazepane-5-carboxamide] | 94.9 |
| CCCn1c(N)c(C(=O)CCl)c(=O)n(C)c1=O [10-H12, 6-amino-5-(2-chloroacetyl)-3-methyl-1-propyl-1,2,3,4-tetrahydropyrimidine-2,4-dione] | 86.3 |
| COc1cc([N+](=O)[O-])ccc1N1C(=O)C=CC1=O [10-H13, 1-(2-methoxy-4-nitrophenyl)-2,5-dihydro-1H-pyrrole-2,5-dione] | 97.6 |
| CCc1ccc(CC)c(C(=O)CCl)c1 [10-H14, 2-chloro-1-(2,5-diethylphenyl)ethan-1-one] | 33.6 |
| O=C1C=CC(=O)N1c1cc([N+](=O)[O-])ccc1Cl [10-H15, 1-(2-chloro-5-nitrophenyl)-2,5-dihydro-1H-pyrrole-2,5-dione] | 126 |
| Cc1ccc(NC(=O)N2CCN(C(=O)C=CCN(C)C)CC2)cc1 [10-H16, 4-[4-(dimethylamino)but-2-enoyl]-N-(4-methylphenyl)piperazine-1-carboxamide] | 94.2 |
| O=C(CCl)c1ccc2c(c1)-c1ccccc1C2 [10-H17, 2-chloro-1-(9H-fluoren-3-yl)ethan-1-one] | 51.2 |
| Cc1cc(C(=O)CCl)c(C)n1-c1ccc(Cl)cc1 [10-H18, 2-chloro-1-[1-(4-chlorophenyl)-2,5-dimethyl-1H-pyrrol-3-yl]ethan-1-one] | 0.517 |
| CS(=O)(=O)N1CCCc2cc(C(=O)CCl)ccc21 [10-H19, 2-chloro-1-(1-methanesulfonyl-1,2,3,4-tetrahydroquinolin-6-yl)ethan-1-one] | 72 |
| Cc1ccccc1-n1c(C)cc(C(=O)CCl)c1C [10-H20, 2-chloro-1-[2,5-dimethyl-1-(2-methylphenyl)-1H-pyrrol-3-yl]ethan-1-one] | 0.349 |
| COc1ccc(NC(=O)N2CCSSCC2)cc1 [10-H21, N-(4-methoxyphenyl)-1,2,5-dithiazepane-5-carboxamide] | 103 |
| COc1ccc(C(=O)C(C)Cl)cc1 (stereo not drawn) [10-H22, 2-chloro-1-(4-methoxyphenyl)propan-1-one] | 73.6 |
| NC(=O)CCc1ccc(C(=O)CCl)cc1 [10-I03, 3-[4-(2-chloroacetyl)phenyl]propanamide] | 4.69 |
| Cc1cc(C(=O)CCl)c(C)n1-c1cc(Cl)cc(Cl)c1 [10-I04, 2-chloro-1-[1-(3,5-dichlorophenyl)-2,5-dimethyl-1H-pyrrol-3-yl]ethan-1-one] | 0.227 |

| Structure (SMILES) | viability at 48 h, 25 µM [%] |
| --- | --- |
| NS(=O)(=O)c1cccc(N2C(=O)C=CC2=O)c1 [10-I05, 3-(2,5-dioxo-2,5-dihydro-1H-pyrrol-1-yl)benzene-1-sulfonamide] | 93.4 |
| Cc1cc(C(=O)CCl)c(C)c(C)c1C [10-I06, 2-chloro-1-(2,3,4,5-tetramethylphenyl)ethan-1-one] | 0.728 |
| CN(C)C(=O)c1csc(C(=O)CCl)c1 [10-I07, 5-(2-chloroacetyl)-N,N-dimethylthiophene-3-carboxamide] | 56.6 |
| Cc1cc(C(=O)CCl)c(C)n1C(c1ccccc1)c1ccccc1 [10-I08, 2-chloro-1-[1-(diphenylmethyl)-2,5-dimethyl-1H-pyrrol-3-yl]ethan-1-one] | 1.32 |
| O=C(CCl)c1ccncc1F [10-I09, 2-chloro-1-(3-fluoropyridin-4-yl)ethan-1-one hydrochloride] | 85 |
| CC(=O)NCc1ccc(C(=O)CCl)o1 [10-I10, N-{[5-(2-chloroacetyl)furan-2-yl]methyl}acetamide] | 86.8 |
| COC(=O)c1cccc(C(=O)CCl)c1 [10-I11, methyl 3-(2-chloroacetyl)benzoate] | 1.87 |
| COc1ccc(-n2c(C)cc(C(=O)CCl)c2C)cc1 [10-I12, 2-chloro-1-[1-(4-methoxyphenyl)-2,5-dimethyl-1H-pyrrol-3-yl]ethan-1-one] | 0.472 |
| CS(=O)(=O)c1ccc(C(=O)CCl)cc1 [10-I13, 2-chloro-1-(4-methanesulfonylphenyl)ethan-1-one] | 65.1 |
| O=C(CCl)c1ccc2[nH]c(=O)[nH]c2c1 [10-I14, 5-(2-chloroacetyl)-2,3-dihydro-1H-1,3-benzodiazol-2-one] | 1.71 |
| O=C(CCl)Cc1cc(Cl)cc(Cl)c1 [10-I15, 1-chloro-3-(3,5-dichlorophenyl)propan-2-one] | 3.97 |
| Cn1c(N)c(C(=O)CCl)c(=O)[nH]c1=O [10-I16, 6-amino-5-(2-chloroacetyl)-1-methyl-1,2,3,4-tetrahydropyrimidine-2,4-dione] | 104 |
| CC(C)c1ccc(CC(=O)CCl)cc1 [10-I17, 1-chloro-3-[4-(propan-2-yl)phenyl]propan-2-one] | 73.5 |
| O=C(CCl)c1ccc(F)cc1F [10-I18, 2-chloro-1-(2,4-difluorophenyl)ethan-1-one] | 77.2 |
| Cc1cccc(CC(=O)CCl)c1 [10-I19, 1-chloro-3-(3-methylphenyl)propan-2-one] | 68.3 |
| CC(=O)N1c2ccc(C(=O)CCl)cc2CC1C (stereo not drawn) [10-I20, 1-(1-acetyl-2-methyl-2,3-dihydro-1H-indol-5-yl)-2-chloroethan-1-one] | 3.53 |
| CCn1cc(N2C(=O)C=CC2=O)cn1 [10-I21, 1-(1-ethyl-1H-pyrazol-4-yl)-2,5-dihydro-1H-pyrrole-2,5-dione] | 38.5 |
| CC(C)C(C(=O)O)N1C(=O)C=CC1=O (stereo not drawn) [10-I22, 2-(2,5-dioxo-2,5-dihydro-1H-pyrrol-1-yl)-3-methylbutanoic acid] | 106 |
| O=C(CCl)c1ccccn1 [10-J03, 2-chloro-1-(pyridin-2-yl)ethan-1-one] | 94.4 |

| Structure (SMILES) | viability at 48 h, 25 µM [%] |
| --- | --- |
| N#CC(C(=O)CCl)=C1Nc2ccccc2S1 [10-J04, 4-chloro-2-(2,3-dihydro-1,3-benzothiazol-2-ylidene)-3-oxobutanenitrile] | 0.855 |
| Cc1nn(CCC(=O)N2CCSSCC2)c(C)c1[N+](=O)[O-] [10-J05, 3-(3,5-dimethyl-4-nitro-1H-pyrazol-1-yl)-1-(1,2,5-dithiazepan-5-yl)propan-1-one] | 96.8 |
| Cn1cc(C(=O)CCl)cc1C(N)=O [10-J06, 4-(2-chloroacetyl)-1-methyl-1H-pyrrole-2-carboxamide] | 1.55 |
| NC(=O)Nc1ccc(C(=O)CCl)cc1 [10-J07, [4-(2-chloroacetyl)phenyl]urea] | 108 |
| Cc1cc(C(=O)CCl)c(C)[nH]1 [10-J08, 2-chloro-1-(2,5-dimethyl-1H-pyrrol-3-yl)ethan-1-one] | 1.07 |
| O=S(=O)(c1cc(Cl)cc(Cl)c1)N1CCSSCC1 [10-J09, 5-(3,5-dichlorobenzenesulfonyl)-1,2,5-dithiazepane] | 102 |
| Cn1ncc(C(=O)CCl)n1 [10-J10, 2-chloro-1-(2-methyl-2H-1,2,3-triazol-4-yl)ethan-1-one] | 85.5 |
| CC(=O)Nc1ccc(NC(=O)N2CCSSCC2)cc1 [10-J11, N-(4-acetamidophenyl)-1,2,5-dithiazepane-5-carboxamide] | 120 |
| Cc1cc(C(=O)CCl)c(C)n1-c1ccc(C(C)C)cc1 [10-J12, 2-chloro-1-{2,5-dimethyl-1-[4-(propan-2-yl)phenyl]-1H-pyrrol-3-yl}ethan-1-one] | 0.754 |
| Cc1ccccc1N1C(=O)C=CC1=O [10-J13, 1-(2-methylphenyl)-2,5-dihydro-1H-pyrrole-2,5-dione] | 109 |
| Cc1cc(C(=O)CCl)c(C)n1-c1ccc(C(F)(F)F)cc1 [10-J14, 2-chloro-1-{2,5-dimethyl-1-[4-(trifluoromethyl)phenyl]-1H-pyrrol-3-yl}ethan-1-one] | 0.425 |
| COc1ccc(N2C(=O)C=CC2=O)c(OC)c1 [10-J15, 1-(2,4-dimethoxyphenyl)-2,5-dihydro-1H-pyrrole-2,5-dione] | 109 |
| CSc1cccc(-n2c(C)cc(C(=O)CCl)c2C)c1 [10-J16, 2-chloro-1-{2,5-dimethyl-1-[3-(methylsulfanyl)phenyl]-1H-pyrrol-3-yl}ethan-1-one] | 0.898 |
| COc1ccc(C(=O)C(C)Cl)c(OC)c1 (stereo not drawn) [10-J17, 2-chloro-1-(2,4-dimethoxyphenyl)propan-1-one] | 91.9 |
| Nc1c(C(=O)CCl)c(=O)[nH]c(=O)n1Cc1ccccc1 [10-J18, 6-amino-1-benzyl-5-(2-chloroacetyl)-1,2,3,4-tetrahydropyrimidine-2,4-dione] | 88.2 |
| O=C1C=CC(=O)N1c1ccc(OC(F)(F)F)cc1 [10-J19, 1-[4-(trifluoromethoxy)phenyl]-2,5-dihydro-1H-pyrrole-2,5-dione] | 85.4 |
| CCOC(=O)c1c(C)[nH]c(C(=O)CCl)c1C [10-J20, ethyl 5-(2-chloroacetyl)-2,4-dimethyl-1H-pyrrole-3-carboxylate] | 1.66 |
| Cc1cc(Cl)ccc1OC(C)C(=O)N1CCSSCC1 (stereo not drawn) [10-J21, 2-(4-chloro-2-methylphenoxy)-1-(1,2,5-dithiazepan-5-yl)propan-1-one] | 110 |
| CC(Cl)C(=O)C=C1N(C)c2ccccc2C1(C)C (stereo not drawn) [10-J22, 3-chloro-1-(1,3,3-trimethyl-2,3-dihydro-1H-indol-2-ylidene)butan-2-one] | 5.56 |

From PMC11995724, “Antibiotic target discovery by integrated phenotypic and activity-based profiling of electrophilic fragments” (Cell chemical biology, 2025)
